Results taken from patent US6340755B1, “5H-Pyrano[2,3-d: 6,5-d']dipyrimidine derivatives having an antibacterial, antiviral and immuno-modulating activity” (Natural Drug Sciences LLC, priority 2000, dated 2002).

Experiments:
[1] = tested on: C. trachomatis D323; experiment: Activity on Chlamydia trachomatis in McCoy and L929 cell cultures; format: cell-based; settings: 100 mg/l, 48 hours
Experimental: The antimicrobial activity of the claimed compounds was studied on C. trachomatis […]-a standard strain from the collection of the Department of Microbiology of the Pavlov St.-Petersburg State University. This strain was isolated from a patient with […] urethritis. […] In the work reported here we used McCoy and L929 cell cultures obtained from the Institute of Cytology of the Russian Academy of Sciences. The cells were grown in flasks of neutral glass in RPMI-1640 medium with an addition of 10% fetal calf serum. The experiment was placed in glass (toxicity-free) flat-bottomed flasks and covered with glass. The cells were introduced into the medium in a final concentration of 1·10 cells/ml. […] The sample was centrifuged at 2400 g for 60 min at room temperature and incubated at 37° C. for 2 hours. […] A parallel series of samples was run using medium without the cycloheximide in order to avoid its influence on the test substances. The samples were incubated for 48 hours in a CO2 incubator. […] The results were evaluated from the detection of chlamydia cytoplasmatic inclusion by an immunoenzyme method (MicroTrac Chlamydia trachomatis Direct Specimen Test) and from chlamydia antigens using CylaMonoScreen (Russian-British Joint Venture, 66 Regent's Park Road, London NW 1 7SX).

[2] = tested on: herpes simplex type I (VPG-I/Leningrad/248/88); experiment: Activity on herpes simplex virus: cytopathic action of the virus on Vero cells; format: cell-based; settings: 36 hours; for number of cells in 100 fields (unchanged cells): cell control 12000
Experimental: The antiviral activity was studied relative to the virus herpes simplex type I (VPG-I/Leningrad/248/88) by a standard method. The virus was grown on a reinoculated Vero cell culture obtained from the cell culture bank of the Institute of Cytology of the Russian Academy of Sciences.
To cells grown on medium RPMI-1640 with 10% calf serum and placed in the wells of a 96-well plate, the virus was added to give a final concentration of 10 particles/ml and the claimed compounds dissolved in DMSO were added to give a final concentrations of 100, 10, and 1 mg/l. We used 5 individual wells for every concentration tested. The plate was incubated for 60 min at 38° C. in a CO2 incubator. After incubation the virus was removed and new medium was added that contained the claimed compounds in the test concentrations.
The results were evaluated according to the existence of a cytopathic action of the virus on the cells after 36 hours of incubation at 38° C. in the CO2 incubator.
The following controls were used in the experiment:
3. Control of antiviral activity of an antiviral preparation—acylcovir.
To access the cytopathic effect of the virus, we counted the number of unchanged cells in 100 fields formed by a specialized grid on the eyepiece of the inversion microscope.

[3] = tested on: primary culture of human lymphocytes; experiment: Interferon-inducing activity in primary culture of human lymphocytes (immunoenzyme IFN determination); format: cell-based; set-up: unit of the concentration uncertain; settings: 24 hours of incubation
Experimental: Interferon synthesis induction by the claimed preparations was conducted on a primary culture of human lymphocytes (the cells in the human body are the main producers of interferon). To obtain a culture of the lymphocytes we used fresh blood (12 hours after collection) from healthy […] (not from the second group).
The lymphocyte concentration was determined after staining with methyl blue and the number of cells in the Goryaev chamber was calculated. […] The final concentration of the lymphocytes in the induction mixture was 3·10^6 cells/ml. The following controls were processed in parallel with the test samples:
The control and the experimental samples were incubated for 24 hours at 37° C. Following incubation the samples were centrifuged at 2000 g to settle out the cellular elements and the INF-containing supernatant was taken from the samples and analyzed for INF content. The cell residue was resuspended in the same volume of nutrient medium, stained with a vital dye—trypan blue—and the number of cells in the Goryaev chamber was calculated (as described above) to determine the cytotoxic activity of the preparations.
For the quantitative determination of INF in the control and experimental samples we used the ProCon IF2 Plus immunoenzyme test system sold by TOO Proteinovyi Kontur. To determine the quantity of interferon s in the sample we used a solid-phase immunoenzyme method utilizing horseradish peroxidase as the enzyme indicator. The activity of the bound peroxidase was measured using an automated photometer at a wavelength of 450 nm for the microplanchets with a microprocessor. […] On the basis of the results obtained we plotted a calibration curve that allowed us to obtain data expressed in International Units (IU) from the microprocessor of the automated photometer. The results of the analysis are expressed in IU of activity of INF per ml in the given induction system containing 3·10^6 lymphocytes/ml. Every experimental and control point was studied in 4 parallel runs.
The results obtained were analyzed statistically using the t-test and the confidence interval at p=0.05 was calculated. Analysis of the convergence of the results of the parallel tests were performed.

[4] = tested on: herpes simplex type I (VPG-I/Leningrad/248/88); experiment: Activity on herpes simplex virus: cytopathic action of the virus on Vero cells; format: cell-based; settings: 50 mg/l, 36 hours
[5] = tested on: non-linebred white mice; experiment: Acute toxicity (LD50) in mice; format: in vivo; settings: mice 18-20 g; by mouth or intravenously; observation period 14 days
Experimental: Acute toxicity was determined on non-linebred white mice weighing 18-20 g. Emulsions of certain of the claimed compounds were prepared in a range of concentrations: 1500, 700, 500, 100, 20 and 5 μg/kg. Five animals were used to study each specific concentration of a compound. The preparation was administered once a day by mouth or intravenously. The observation period was 14 days On days 1, 8 and 15 the animals in every group were weighed. For a control we used animals who received the emulsion without the test compounds.
All animals, both that died in the course of the experiment and those that survived to the end of the experiment, were opened to allow macroscopic examination of internal organs.
In the course of the experiment no loss of weight was observed or any change in behavior or external appearance, nor was there any loss of life. Based on the results of the macroscopic examination of internal organs of the animals in the test and the control groups, no pathological findings were made (Table 7).

Oc1nc(S)nc2c1C(c1ccc(Cl)cc1)c1c(O)nc(S)nc1O2 [VIII]
percent protection of the cells against infection [1]: 60% | number of cells in 100 fields (unchanged cells) ([1]; cell control 8000, infected cell control 6400): 7360 | percent protection of the cells against the virus compared to the cell culture control ([2]; 10 mg/l): 20% | number of cells in 100 fields (unchanged cells) ([2]; 10 mg/l): 2400 | percent protection of the cells against the virus compared to the cell culture control ([2]; 100 mg/l): 90% | number of cells in 100 fields (unchanged cells) ([2]; 100 mg/l): 10800 | Interferon-inducing activity of the drug; content of INF in induction mixture ([3]; 1 (unit uncertain)): 1.5 ± 1.0 IU/3 · 10^4 lymp/ml | Interferon-inducing activity of the drug; content of INF in induction mixture ([3]; 10 (unit uncertain)): 23.2 ± 1.5 IU/3 · 10^4 lymp/ml | Interferon-inducing activity of the drug; content of INF in induction mixture ([3]; 100 (unit uncertain)): 70.5 ± 2.5 IU/3 · 10^4 lymp/ml | percent protection of the cells against the virus compared to the cell culture control [4]: 50% | number of cells in 100 fields (unchanged cells) ([4]; cell control 12000): 6000 | LD50 [5]: 1800 mg/kg
